Data reported in PubChem BioAssay (NCI).
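Method: 48-hour compound exposure of cells in 96-well plates, five concentrations, linear interpolation of endpoints. TGI: total growth inhibition.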

How the values were obtained:
Assay in all cases: inhibition of tumour cell growth, NCI panel, 48 h
786-0 renal = tested on: 786-0 renal
A498 renal = tested on: A498 renal
A549 NSCLC = tested on: A549 NSCLC
ACHN renal = tested on: ACHN renal
BT-549 breast = tested on: BT-549 breast
CAKI-1 renal = tested on: CAKI-1 renal
CCRF-CEM leukemia = tested on: CCRF-CEM leukemia
COLO 205 colon = tested on: COLO 205 colon
DU-145 prostate = tested on: DU-145 prostate
EKVX NSCLC = tested on: EKVX NSCLC
HCC-2998 colon = tested on: HCC-2998 colon
HCT-116 colon = tested on: HCT-116 colon
HL-60(TB) leukemia = tested on: HL-60(TB) leukemia
HOP-62 NSCLC = tested on: HOP-62 NSCLC
HOP-92 NSCLC = tested on: HOP-92 NSCLC
HS 578T breast = tested on: HS 578T breast
HT29 colon = tested on: HT29 colon
IGROV1 ovarian = tested on: IGROV1 ovarian
KM12 colon = tested on: KM12 colon
M14 melanoma = tested on: M14 melanoma
MALME-3M melanoma = tested on: MALME-3M melanoma
MCF7 breast = tested on: MCF7 breast
MDA-MB-231 breast = tested on: MDA-MB-231 breast
MDA-MB-435 = tested on: MDA-MB-435
MDA-N = tested on: MDA-N
MOLT-4 leukemia = tested on: MOLT-4 leukemia
NCI-H226 lung = tested on: NCI-H226 lung
NCI-H23 lung = tested on: NCI-H23 lung
NCI-H460 lung = tested on: NCI-H460 lung
NCI/ADR-RES ovarian = tested on: NCI/ADR-RES ovarian
OVCAR-3 ovarian = tested on: OVCAR-3 ovarian
OVCAR-4 ovarian = tested on: OVCAR-4 ovarian
OVCAR-5 ovarian = tested on: OVCAR-5 ovarian
PC-3 prostate = tested on: PC-3 prostate
RPMI-8226 leukemia = tested on: RPMI-8226 leukemia
RXF 393 renal = tested on: RXF 393 renal
SF-268 CNS = tested on: SF-268 CNS
SF-295 CNS = tested on: SF-295 CNS
SF-539 CNS = tested on: SF-539 CNS
SK-MEL-2 melanoma = tested on: SK-MEL-2 melanoma
SK-MEL-28 melanoma = tested on: SK-MEL-28 melanoma
SK-MEL-5 melanoma = tested on: SK-MEL-5 melanoma
SK-OV-3 ovarian = tested on: SK-OV-3 ovarian
SNB-19 CNS = tested on: SNB-19 CNS
SNB-75 CNS = tested on: SNB-75 CNS
SR leukemia = tested on: SR leukemia
SW-620 colon = tested on: SW-620 colon
T-47D breast = tested on: T-47D breast
TK-10 renal = tested on: TK-10 renal
U251 CNS = tested on: U251 CNS
UACC-257 melanoma = tested on: UACC-257 melanoma
UACC-62 melanoma = tested on: UACC-62 melanoma
UO-31 renal = tested on: UO-31 renal
HCT-15 colon = tested on: HCT-15 colon
K-562 leukemia = tested on: K-562 leukemia
NCI-H522 lung = tested on: NCI-H522 lung
OVCAR-8 ovarian = tested on: OVCAR-8 ovarian
SN12C renal = tested on: SN12C renal

COC1(OC)C[C@H](C)[C@@]23O[C@]24C2=CC(=O)C=CC2=N[C@H]3C#C/C=C\C#C[C@]14O
TGI (786-0 renal): 0.574 µM | TGI (A498 renal): 2.11 µM | TGI (A549 NSCLC): 1.78 µM | TGI (ACHN renal): 0.965 µM | TGI (BT-549 breast): 2.2 µM | TGI (CAKI-1 renal): 1.4 µM | TGI (CCRF-CEM leukemia): 0.811 µM | TGI (COLO 205 colon): 2.14 µM | TGI (DU-145 prostate): 2.24 µM | TGI (EKVX NSCLC): 2.21 µM | TGI (HCC-2998 colon): 2.13 µM | TGI (HCT-116 colon): 1.35 µM | TGI (HL-60(TB) leukemia): 0.318 µM | TGI (HOP-62 NSCLC): 2.25 µM | TGI (HOP-92 NSCLC): 1.8 µM | TGI (HS 578T breast): 5.09 µM | TGI (HT29 colon): 1.25 µM | TGI (IGROV1 ovarian): 2.37 µM | TGI (KM12 colon): 1.88 µM | TGI (M14 melanoma): 1.82 µM | TGI (MALME-3M melanoma): 2.1 µM | TGI (MCF7 breast): 1.4 µM | TGI (MDA-MB-231 breast): 2.06 µM | TGI (MDA-MB-435): 1.7 µM | TGI (MDA-N): 2.28 µM | TGI (MOLT-4 leukemia): 0.106 µM | TGI (NCI-H226 lung): 2.6 µM | TGI (NCI-H23 lung): 2.05 µM | TGI (NCI-H460 lung): 1.42 µM | TGI (NCI/ADR-RES ovarian): 36.1 µM | TGI (OVCAR-3 ovarian): 1.93 µM | TGI (OVCAR-4 ovarian): 1.74 µM | TGI (OVCAR-5 ovarian): 1.8 µM | TGI (PC-3 prostate): 2.09 µM | TGI (RPMI-8226 leukemia): 0.56 µM | TGI (RXF 393 renal): 2.49 µM | TGI (SF-268 CNS): 12.2 µM | TGI (SF-295 CNS): 6.65 µM | TGI (SF-539 CNS): 1.93 µM | TGI (SK-MEL-2 melanoma): 3.58 µM | TGI (SK-MEL-28 melanoma): 2.51 µM | TGI (SK-MEL-5 melanoma): 1.56 µM | TGI (SK-OV-3 ovarian): 2.89 µM | TGI (SNB-19 CNS): 3.02 µM | TGI (SNB-75 CNS): 1.58 µM | TGI (SR leukemia): 0.4 µM | TGI (SW-620 colon): 3.42 µM | TGI (T-47D breast): 2.56 µM | TGI (TK-10 renal): 2.1 µM | TGI (U251 CNS): 1.82 µM | TGI (UACC-257 melanoma): 5.16 µM | TGI (UACC-62 melanoma): 2.93 µM | TGI (UO-31 renal): 1.76 µM

S=C(Nc1c2c(nc3ccccc13)CCCC2)Nc1c2c(nc3ccccc13)CCCC2
TGI (786-0 renal): > 100 µM | TGI (A498 renal): > 100 µM | TGI (A549 NSCLC): > 100 µM | TGI (ACHN renal): > 100 µM | TGI (BT-549 breast): > 100 µM | TGI (CAKI-1 renal): > 100 µM | TGI (CCRF-CEM leukemia): > 100 µM | TGI (COLO 205 colon): > 100 µM | TGI (DU-145 prostate): > 100 µM | TGI (EKVX NSCLC): > 100 µM | TGI (HCC-2998 colon): > 100 µM | TGI (HCT-116 colon): > 100 µM | TGI (HCT-15 colon): > 100 µM | TGI (HOP-62 NSCLC): > 100 µM | TGI (HS 578T breast): > 100 µM | TGI (HT29 colon): > 100 µM | TGI (IGROV1 ovarian): > 100 µM | TGI (K-562 leukemia): > 100 µM | TGI (KM12 colon): > 100 µM | TGI (M14 melanoma): > 100 µM | TGI (MALME-3M melanoma): > 100 µM | TGI (MCF7 breast): > 100 µM | TGI (MDA-MB-231 breast): > 100 µM | TGI (MDA-MB-435): > 100 µM | TGI (MDA-N): > 100 µM | TGI (MOLT-4 leukemia): > 100 µM | TGI (NCI-H226 lung): > 100 µM | TGI (NCI-H23 lung): > 100 µM | TGI (NCI-H460 lung): > 100 µM | TGI (NCI-H522 lung): > 100 µM | TGI (NCI/ADR-RES ovarian): > 100 µM | TGI (OVCAR-3 ovarian): > 100 µM | TGI (OVCAR-4 ovarian): > 100 µM | TGI (OVCAR-5 ovarian): > 100 µM | TGI (OVCAR-8 ovarian): > 100 µM | TGI (PC-3 prostate): > 100 µM | TGI (RPMI-8226 leukemia): > 100 µM | TGI (RXF 393 renal): > 100 µM | TGI (SF-268 CNS): > 100 µM | TGI (SF-295 CNS): > 100 µM | TGI (SK-MEL-2 melanoma): > 100 µM | TGI (SK-MEL-28 melanoma): > 100 µM | TGI (SK-MEL-5 melanoma): > 100 µM | TGI (SK-OV-3 ovarian): > 100 µM | TGI (SN12C renal): > 100 µM | TGI (SNB-19 CNS): > 100 µM | TGI (SNB-75 CNS): > 100 µM | TGI (SR leukemia): > 100 µM | TGI (SW-620 colon): > 100 µM | TGI (T-47D breast): > 100 µM | TGI (TK-10 renal): > 100 µM | TGI (U251 CNS): > 100 µM | TGI (UACC-257 melanoma): > 100 µM | TGI (UACC-62 melanoma): > 100 µM | TGI (UO-31 renal): > 100 µM
